The text below walks through data of US8895585B2, “Nicotinamide derivative or salt thereof” (FUJIFILM Corporation, priority 2010, dated 2014).

pIC50: −log10 of the molar value.

In the first assay the target is T1, glutathione S-transferase (GST)-fused full-length human Syk protein (Homo sapiens, UniProt P43405).
T1 construct: (GST)-fused full-length human Syk protein; GST (glutathione S-transferase); purchased Carna Biosciences
As to the kind of experiment: Syk enzyme assay. Type of assay: biochemical. The conditions noted are these: Syk enzyme assay, Test Example 1; read-out: IC50 of Syk-inhibitory activity. Put shortly: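 Baculovirus-expressed enzyme (1.2 ng) was preincubated with compound in HEPES pH 7.0/MgCl2/DTT buffer, 2 min shaking then 13 min at room temperature. Biotin-EDPDYEWPSA-NH2 (0.4 μM final) and ATP (27 μM final) were added for 40 min at room temperature. EDTA stop, streptavidin-XL/PT66-K TR-FRET at 615/665 nm gave IC50.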
Regarding `COCCOCCOc1cnc2cc(Nc3nc(N[C@@H]4CCCC[C@@H]4N)c(F)cc3C(N)=O)ccc2n1` (relative stereo) [Example 004-179, 6-(cis-2-aminocyclohexylamino)-5-fluoro-2-((2-(2-(2-methoxyethoxy)ethoxy)quinoxalin-6-yl)amino)nicotinamide], the negative logarithm of the IC50 (pIC50) is over 8.00.
The same measure, in the same setting: to `NC(=O)c1cc(F)c(N[C@@H]2CCCC[C@@H]2N)nc1Nc1ccc2nccn2c1` (relative stereo) [Example 004-130, 6-(cis-2-aminocyclohexylamino)-5-fluoro-2-((imidazo[1,2-a]pyridin-6-yl)amino)-nicotinamide] belongs 6.00 to 7.00; to `NC(=O)c1cc(F)c(NC2CCCCC2N)nc1Nc1ccnc(-c2ccc3cccnc3c2)c1` (stereo not drawn) [Example 002-192], over 8.00.
On the same count and under the same terms, for `COc1cc(Nc2nc(N[C@@H]3CCCC[C@@H]3N)c(F)cc2C(N)=O)cnc1N1CCOCC1` [Example 004-233, 6-(((1R,2S)-2-aminocyclohexyl)amino)-5-fluoro-2-((5-methoxy-6-morpholinopyridin-3-yl)amino)nicotinamide] the value was 6.00 to 7.00; for `NC(=O)c1cc(F)c(NC[C@@H](N)c2ccccc2)nc1Nc1cccc(-n2nccn2)c1` [Example 006-120, (S)-2-((3-(2H-1,2,3-triazol-2-yl)phenyl)amino)-6-((2-amino-2-phenylethyl)amino)-5-fluoronicotinamide], 7.30 to 8.00; for `COc1ncc(Nc2nc(NC3CCCCC3N)c(F)cc2C(N)=O)cc1-n1cccn1` (stereo not drawn) [Example 002-154], 7.30 to 8.00.
`CCc1nn(CC)c2ccc(Nc3nc(N[C@H](CC(C)C)[C@H](C)N)c(F)cc3C(N)=O)cc12` [Example 006-540, 6-(((2S,3R)-2-amino-5-methylhexan-3-yl)amino)-2-((1,3-diethyl-1H-indazol-5-yl)amino)-5-fluoronicotinamide]: the negative logarithm of the IC50 (pIC50) is over 8.00.
Still for that read-out and setting: for `COc1cc(Nc2nc(N[C@@H](C(N)=O)c3ccccc3)c(F)cc2C(N)=O)cc(OC)c1` [Example 016-017] the value was 7.30 to 8.00.
For `NC(=O)c1cc(F)c(N[C@@H]2CCCC[C@@H]2N)nc1Nc1cnc2cc(-n3cccn3)ccc2c1` (relative stereo) [Example 004-210, 2-((7-(1H-pyrazol-1-yl)quinolin-3-yl)amino)-6-(cis-2-aminocyclohexylamino)-5-fluoronicotinamide], the pIC50 is over 8.00.
Same read-out and setting: for `NC(=O)c1cc(F)c(N[C@@H]2CCCC[C@@H]2N)nc1Nc1cc(C(F)(F)F)cc2[nH]ccc12` (relative stereo) [Example 004-085, 6-(cis-2-aminocyclohexylamino)-5-fluoro-2-((6-(trifluoromethyl)-1H-indol-4-yl)amino)-nicotinamide] the value was over 8.00.
In the case of `CCC[C@@H](Nc1nc(Nc2ccc3c(cnn3CC)c2)c(C(N)=O)cc1F)[C@@H](N)CC` [Example 006-399, 6-(((3S,4R)-3-aminoheptan-4-yl)amino)-2-((1-ethyl-1H-indazol-5-yl)amino)-5-fluoronicotinamide], the pIC50 was over 8.00.
On the same count and under the same terms, to `C[C@H](N)[C@H](Nc1nc(Nc2cnc3c(c2)OCO3)c(C(N)=O)cc1F)C1CC1` [Example 006-514, 2-([1,3]dioxolo[4,5-b]pyridin-6-ylamino)-6-(((1R,2S)-2-amino-1-cyclopropylpropyl)amino)-5-fluoronicotinamide] belongs 7.00 to 7.30; to `CC1(C)Oc2cccnc2N(c2ccc(Nc3nc(NC4CCCCC4N)c(F)cc3C(N)=O)cn2)C1=O` (stereo not drawn) [Example 002-159], 6.00 to 7.00.
In the case of `NC(=O)c1cc(F)c(N[C@@H]2CCCC[C@@H]2N)nc1Nc1cnc2c(NS(=O)(=O)CCl)cccc2c1` (relative stereo) [Example 41-3, 6-(cis-2-aminocyclohexylamino)-2-((8-(2-chloromethylsulphonamide)quinolin-3-yl)amino)-5-fluoronicotinamide], the pIC50 was 7.30 to 8.00.
`COc1cccc(-c2cncc(Nc3nc(N[C@@H]4CCCC[C@@H]4N)c(F)cc3C(N)=O)c2)n1` (relative stereo) [Example 004-230, 6-((cis-2-aminocyclohexyl)amino)-5-fluoro-2-((6-methoxy-[2,3′-bipyridin]-5′-yl)amino)nicotinamide]: the negative logarithm of the IC50 (pIC50) is 7.30 to 8.00.
For `CC[C@H](N)C(C)Nc1nc(Nc2ccc3ncccc3c2)c(C(N)=O)cc1F` (stereo partly drawn) [Example 006-149], the pIC50 was 7.30 to 8.00.
The same measure, in the same setting: to `COc1ncc(Nc2nc(NC3CCCCC3N)c(F)cc2C(N)=O)cc1-c1ccco1` (stereo not drawn) [Example 002-150] belongs 7.30 to 8.00; to `NC(=O)c1cc(F)c(N[C@@H]2CCCC[C@@H]2N)nc1Nc1cncc(-c2cccc(F)c2F)c1` (relative stereo) [Example 004-204, 6-(cis-2-aminocyclohexylamino)-2-((5-(2,3-difluorophenyl)pyridin-3-yl)amino)-5-fluoronicotinamide], over 8.00; to `NC(=O)c1cc(F)c(NC2CCCCC2N)nc1Nc1ccc2cnn(Cc3ccccc3)c2c1` (stereo not drawn) [Example 002-047], 7.30 to 8.00.
For `NC(=O)c1cc(F)c(N[C@@H]2CCCC[C@@H]2N)nc1Nc1ccnc(CO)c1` (relative stereo) [Example 004-194, 6-(cis-2-aminocyclohexylamino)-5-fluoro-2-((2-(hydroxymethyl)pyridin-4-yl)amino)nicotinamide], the pIC50 is 7.30 to 8.00.
The same measure, in the same setting: to `COc1ccc(C[C@@H](Nc2nc(Nc3ccc4ncccc4c3)c(C(N)=O)cc2F)C(N)=O)cc1` [Example 012-034] belongs 6.00 to 7.00; to `NC(=O)c1cc(F)c(NC2CCCCC2N)nc1Nc1ccc(N2CCOCC2=O)nc1` (stereo not drawn) [Example 002-162], 6.00 to 7.00; to `CC[C@H](N)[C@@H](CC)Nc1nc(Nc2cnc(OC)c(-n3nccn3)c2)c(C(N)=O)cc1F` [Example 006-391, 6-(((3R,4S)-4-aminohexan-3-yl)amino)-5-fluoro-2-((6-methoxy-5-(2H-1,2,3-triazol-2-yl)pyridin-3-yl)amino)nicotinamide], 7.30 to 8.00.
Same read-out and setting: to `NC(=O)c1cc(F)c(N[C@@H]2CCCC[C@@H]2N)nc1Nc1cncc(N2CCCCC2=O)c1` (relative stereo) [Example 004-108, 6-(cis-2-aminocyclohexylamino)-5-fluoro-2-((5-(2-oxopiperidine-1-yl)pyridin-3-yl)amino)-nicotinamide] belongs 6.00 to 7.00; to `NC(=O)c1cc(F)c(NC2CCCCC2N)nc1Nc1cccc(Cl)c1` (stereo not drawn) [Example 008-008], over 8.00.
The same measure, in the same setting: to `NC(=O)c1cc(F)c(N[C@@H]2CCCC[C@@H]2N)nc1Nc1ccc2nc(-n3nccn3)ccc2c1` (relative stereo) [Example 004-202, 2-((2-(2H-1,2,3-triazol-2-yl)quinolin-6-yl)amino)-6-(cis-2-aminocyclohexylamino)-5-fluoronicotinamide] belongs over 8.00; to `NCC1(Nc2nc(Nc3ccc4ncccc4c3)c(C(N)=O)cc2F)CC1` [Example 006-171, 6-((1-(aminomethyl)cyclopropyl)amino)-5-fluoro-2-((quinolin-6-yl)amino)nicotinamide], over 8.00; to `NC(=O)c1cc(F)c(NC2CCCCC2N)nc1Nc1cncc(-c2ccc(OC(F)(F)F)cc2)c1` (stereo not drawn) [Example 002-174], 7.00 to 7.30.
Turning to `NC(=O)c1cc(F)c(N[C@@H]2CCCC[C@@H]2N)nc1Nc1ccnc(COCc2ccccc2)c1` (relative stereo) [Example 004-192, 6-(cis-2-aminocyclohexylamino)-2-((2-((benzyloxy)methyl)pyridin-4-yl)amino)-5-fluoronicotinamide], the negative logarithm of the IC50 (pIC50) was 7.00 to 7.30.
The same measure, in the same setting: to `NC(=O)c1cc(F)c(NC2CCCCC2N)nc1Nc1cc(N2CCOCC2)ncc1F` (stereo not drawn) [Example 002-166] belongs 6.00 to 7.00; to `CS(=O)(=O)Nc1cncc(Nc2nc(NC3CCCCC3N)c(F)cc2C(N)=O)c1` (stereo not drawn) [Example 027-006], 6.00 to 7.00; to `CN(C)C(=O)c1cc2c(Nc3nc(N[C@@H]4CCCC[C@@H]4N)c(F)cc3C(N)=O)ccnc2n1C` [Example 029-009], 6.00 to 7.00.
On the same count and under the same terms, to `NC(=O)c1cc(F)c(N[C@@H]2CCCC[C@@H]2N)nc1Nc1cncc(-c2cc(F)ccc2F)c1` (relative stereo) [Example 004-205, 6-(cis-2-aminocyclohexylamino)-2-((5-(2,5-difluorophenyl)pyridin-3-yl)amino)-5-fluoronicotinamide] belongs over 8.00; to `COCCOc1ncc(Nc2nc(N[C@@H]3CCCC[C@@H]3N)c(F)cc2C(N)=O)c2ccccc12` (relative stereo) [Example 004-150, 6-(cis-2-aminocyclohexylamino)-5-fluoro-2-((1-(2-methoxyethoxy)isoquinolin-4-yl)amino)-nicotinamide], 6.00 to 7.00.
The same measure, in the same setting: for `Cn1cccc1-c1cncc(Nc2nc(NCCN)c(F)cc2C(N)=O)c1` [Example 006-090, 6-((2-aminoethyl)amino)-5-fluoro-2-((5-(1-methyl-1H-pyrrol-2-yl)pyridin-3-yl)amino)nicotinamide] the value was 6.00 to 7.00; for `CN1CCc2ccc(Nc3nc(N[C@@H]4CCCC[C@@H]4N)c(F)cc3C(N)=O)cc2C1` (relative stereo) [Example 006-077, 6-(cis-2-aminocyclohexylamino)-5-fluoro-2-((2-methyl-1,2,3,4-tetrahydroisoquinolin-7-yl)amino)nicotinamide], 7.30 to 8.00; for `CCCCOCCOc1ccc2cc(Nc3nc(NC4CCCCC4N)c(F)cc3C(N)=O)ccc2n1` (stereo not drawn) [Example 002-108], 7.30 to 8.00.
Turning to `COCCOc1ncc(Nc2nc(N[C@@H]3CCCC[C@@H]3N)c(F)cc2C(N)=O)cc1C1CC1` [Example 006-574, 6-(((1R,2S)-2-aminocyclohexyl)amino)-2-((5-cyclopropyl-6-(2-methoxyethoxy)pyridin-3-yl)amino)-5-fluoronicotinamide], the negative logarithm of the IC50 (pIC50) is 7.30 to 8.00.

Still in this assay, the particulars now being: read-out: Syk-inhibitory activity (IC50).
As for `NC(=O)c1cc(F)c(NCc2ncc[nH]2)nc1Nc1ccc2ncccc2c1` [Example 12-28, 5-fluoro-6-(((1H-imidazol-2-yl)methyl)amino)-2-(quinolin-6-ylamino)nicotinamide], the pIC50 was at least 6.00.
